Experimental data: patent publication US20050187188A1, “Methods for the treatment of a traumatic central nervous system injury” (Emory University, priority 2000, published 2005)
“Also recorded” adds a separate entry of the source.

Experiments:
cell death = conditions: by attenuating release of inflammatory cytokines; cited from earlier work
[1] = tested on: rats with bilateral contusions of the medial prefrontal cortex; experiment: Cell counts of Nissl-stained neurons (STR, GP, DMN, VMN), Example 6; assay type: in vivo, rat; conditions: 4 mg/kg in peanut oil
Procedure: (§1) Male Sprague-Dawley rats (300 g) were housed individually in wire cages and kept on a reverse light-dark cycle (0800-2000 h). Animals were assigned to one of four groups: (1) lesion (n=7); (2) lesion +3 days progesterone (LP3; n=7); (3) lesion +5 days progesterone (LP5; n=7); and (4) Sham (n=8). All procedures involving animals conformed to guidelines set forth in the Guide for the Care and Use of Laboratory Animals (U.S. Department of Health and Human Services, Pub no. 85-23, 1985) and were approved by the Emory University Institutional Animal Care and Use Committee.
Bilateral contusions of the medial prefrontal cortex were created by a pneumatic impactor device as previously described. Briefly, rats were given anesthetized with ketamine/xylazine (90 mg/kg; 10 mg/kg) and placed in a stereotaxic apparatus. A craniectomy (diameter 6 mm) was made over the midline of the prefrontal cortex with its center 1.5 mm AP to bregma. […]
Cell counts were done on an Olympus BH-2 microscope equipped with an eyepiece micrometer grid (sample area=40 μm^2 at ×400 magnification). […] Only cells with neuronal nuclei and intact membranes were counted as neurons.
(§2) Experienced individuals who were blind to treatment conditions of the study conducted all histological and behavioral analyses. All data were tested for normality and homoschedasticity before being analyzed by parametric analysis of variance (ANOVA). MWM results were analyzed using separate mixed-factorial (4 groups×5 days) analysis of variance (ANOVA) on each of the two 5-day testing periods (acquisition and retention respectively). Results of the BSN task were analyzed using the mixed-factorial ANOVA (4 groups×2 post-injury trials). […] Pearson r coefficients were calculated to determine whether significant correlations could be detected between histological (e.g., lesion size and cellular density) and behavioral parameters (e.g., acquisition and retention of the MWM task and measures of sensory neglect).

[2] = tested on: rats with bilateral contusions of the medial prefrontal cortex; experiment: Morris water maze task, Example 6; assay type: in vivo, rat
Procedure: as §1
Bilateral contusions of the medial prefrontal cortex were created by a pneumatic impactor device as previously described. Briefly, rats were given anesthetized with ketamine/xylazine (90 mg/kg; 10 mg/kg) and placed in a stereotaxic apparatus. A craniectomy (diameter 6 mm) was made over the midline of the prefrontal cortex with its center 1.5 mm AP to bregma. After removal of the bone, the tip of the impactor (diameter 5 mm) was moved to +3.0 mm AP; 1.0 mm ML (from bregma), and checked for adequate clearance. Trauma was produced by pneumatically activating the piston to impact −2.0 mm DV (from dura) at a velocity of 3 m/s with a brain contact time of 0.5 seconds.
Progesterone was dissolved in peanut oil (Sigma; 4 mg/kg) and injections were given at 1 and 6 hours post-injury and then once per day for either 3 or 5 consecutive days. Control animals received injections of vehicle at similar time-points. Animals were coded with regard to surgery and treatment to prevent experimenter bias during behavioral testing and histological examination.
as §2
Beginning one week after surgery, spatial learning ability was assessed in the Morris water maze (MWM) task described previously. […] Animals were placed in the pool (nose facing the pool-wall) at one of four randomly determined starting positions (e.g.: N, S, E, W). […] Swim speed measures were recorded daily in order to delineate motor dysfunction from learning impairment.

ischemic injury = conditions: following ischemic injury in rats; cited from earlier work
TNFα = TNFα mRNA expression in brain tissue after contusion, real-time quantitative PCR; assay type: in vivo, rat; conditions: 3 hours and 6 days post-injury
Excerpt: (§3) Neurosteroid injections were given at 1 hr and 6 hrs after the contusions, and continued once a day for up to 5 consecutive days post-injury.
(§4) Adult male SD rates received either bilateral prefrontal cortical contusions or sham surgeries. The neurosteroid injections were given at 1 hr and 6 hr after the contusions and continued once a day for up to 5 consecutive days post-injury. At 3 hr, 8 hr, 12 hr and 6 days post-injury, the rats were killed and their brains were processed for mRNA extraction. Expression of mRNA for IL-1β and TNFα were assessed using real-time quantitative PCR.

IL-1β = IL-1β mRNA expression in brain tissue after contusion, real-time quantitative PCR; assay type: in vivo, rat
Excerpt: as §3, §4

[3] = tested on: blood-brain barrier (BBB); conditions: in vitro; macromolecules vs ions such as sodium; cited from earlier work
[4] = tested on: rats with medial frontal cortical contusions; experiment: Cerebral edema (brain tissue water content) after medial frontal cortex contusion, Example 1; assay type: in vivo, rat; conditions: 4 mg/kg in cyclodextrin, i.p. 1 h and s.c. 6 h post-injury; 2, 24 and 72 hours; compared to vehicle
Procedure: Contusions to the medical frontal cortex (MFC) using a pneumatic impactor device were generated. Animals were anesthetized by injection of Nembutal (50 mg/kg, i.p) and placed in a stereotaxic apparatus, with body core temperature being maintained with a homeothermic heating blanket system. Using aseptic techniques, a midline incision was made in the scalp, and the fascia retracted to expose the cranium. A centered, bilateral craniotomy was made 3 mm anterior to bregma using a 6 mm diameter trephan. After the removal of the bone, the tip of the impactor was moved to AP:3.0; ML:0.0, checked for adequate clearance, retracted to its elevated position and lowered 3.5 mm DV, so it penetrated the cortex 2 mm. The contusion was made at a velocity of 2.25 m/s with a brain contact time of 0.5 seconds. Following this procedure, the wound cavity was thoroughly cleaned and all bleeding stopped before the fascia and scalp, were sutured closed. In all experiments, the rats' group identity was coded with regard to surgery and treatment to prevent experimenter bias during behavioral testing and later histological examination.
These experimental solutions were then diluted 1:1 with sterile water for a final concentration of HBC of 22.5%.
Sprague-Dawley male rats, approximately 90 days of age at the time of surgery, were used. Rats were housed in individual cages, with a 12:12 light:dark cycle. Food and water were provided ad libitum throughout the experiment. Control rats received sham surgeries and the rest received medial frontal cortical contusions as described in the general methods. The sham-operated controls were given vehicle (cyclodextrin). […] Treatment began one hour after the contusion was produced. […] Subsequently, a second subcutaneous injection 6 hours post-injury for absorption that is more gradual. […]
At 2, 24, and 72 hours the rats were anesthetized, decapitated, and their brains removed quickly from the cranial cavity. […] The brain was placed on a pre-weighed dish and the total weight of the sample was measured. […]

traumatic brain injury = experiment: Sticker removal task (tactile adhesive removal) dose response, Example 7; assay type: in vivo, rat
Excerpt: On the 7th and 27th days post-injury, the rats will be assessed on their responsivity to focal somatosensory stimuli by requiring them to remove sticky paper from their forelimbs. Pairs of circular adhesive papers will be attached to the distal-radial areas of each forelimb and the animal will be returned to its home cage while the investigator holds the forepaws apart and keeps them away from the rat's mouth. The rats' latencies to remove the stimuli with their mouth will be recorded. The maximum length of a “test” trial will be 2 minutes, with each rat receiving four trials with 2 minute intertrial intervals.
Surgery to induce a traumatic brain injury was performed as outlined in Example 1. Behavior testing using the Morris Water Maize was performed as outlined in Example 1 and the methods for the tactical adhesive removal were performed as outlined in Example 4.

SMILES: CC(=O)[C@H]1CC[C@H]2[C@@H]3CCC4=CC(=O)CC[C@]4(C)[C@H]3CC[C@]12C [progesterone]
- cell death in vitro (cell death): prevent cell death in vitro
- injury-induced neuronal loss (STR, GP, DMN, VMN) ([1]; 3 days (LP3)): significant reduction of injury-induced neuronal loss in all brain regions examined
- injury-induced neuronal loss (STR, GP, DMN, VMN) ([1]; 5 days (LP5)): significant reduction of injury-induced neuronal loss in all brain regions examined
- neuronal loss in the VMN ([1]; 5 days (LP5)): more effective than 3 days at attenuating neuronal loss in the VMN; also recorded: significant reductions in cell loss of the VMN
- spatial learning performance, initial 5-day acquisition phase ([2]; 4 mg/kg in peanut oil, 3 or 5 days, all injured groups): displayed deficits in spatial learning performance as compared to control animals
- spatial learning performance, second 5-day trial block ([2]; 4 mg/kg in peanut oil, 5 days (LP5)): improved spatial learning performance
- swim speed ([2]; 3 or 5 days, any day of testing): no between-group differences
- thigmotaxic (wall-hugging) swim patterns ([2]; 5 days (LP5), last 2 days of the second phase of MWM testing): reduction of thigmotaxic behavior
- cell damage and neurological deficit (ischemic injury): reduce cell damage and neurological deficit
- TNFα mRNA expression (TNFα): reduced the expression of both IL-1β and TNFα
- IL-1β mRNA expression (IL-1β; 3 hours and 6 days post-injury): reduced the expression of both IL-1β and TNFα
- IL-1β mRNA expression (IL-1β; 8 hrs post-injury): but not progesterone, enhanced
- permeability of the BBB [3]: reduce the permeability of the BBB to macromolecules, but not ions
- cerebral edema [4]: intermediate between injured controls and the allopregnanolone-treated injured rats
- sticker removal task (sensory neglect) (traumatic brain injury; high dose 32 mg/kg in cyclodextrin-containing carrier): degraded to lesion control levels
- sticker removal task (sensory neglect) (traumatic brain injury; low dose 8 mg/kg in cyclodextrin-containing carrier): initially produce behavioral recovery
- sticker removal task (sensory neglect) (traumatic brain injury; moderate dose 16 mg/kg in cyclodextrin-containing carrier): improved to sham levels by day 21 post-injury
